Source: patent US20130230580A1, “Administration of SNS Neuroprotective Agents to Promote Hematopoietic Regeneration” (priority 2010, published 2013)
Several values for one entry are separate records, joined by “and”; a condition that tells them apart may be missing. Equal values may be shown once. Entries after “also recorded” stand apart in the source; their conditions may differ.

Tests used:
bone marrow [1] = assay: Bone marrow hematopoietic recovery after transplantation (BMNC, CFU-C, Lin-Sca1+c-kit+flt3- cells); format: in vivo, mice; settings: for hematopoietic recovery in BM after transplantation (progenitors, Lin-Sca1+c-kit+flt3- cells, total BM): about 4 weeks / 30 days post-transplantation, vs saline
Method: Mice were irradiated (1,200 cGy, two split doses, 3 hours apart) in a Cesium Mark 1 irradiator (JL Shepperd & associates). Three hours later, the indicated number of BMNCs was injected retroorbitally in the irradiated recipients under isoflurane (Phoenix Pharmaceuticals) anesthesia. Mice were allowed to recover and analyzed at the indicated time points. […]
(§1) Blood was harvested by retro-orbital sampling of mice anesthetized with isoflurane and collected in polypropylene tubes containing ethylenediaminetetraacetic acid (EDTA). Blood parameters were determined with an AcT differential counter (Beckman-Coulter). CFU-C assays were performed as described in He et al., Ann. Rev. Cell. Dev. Biol. 25:377 (2009), incorporated herein by reference. For flow cytometry, red blood cells were lysed thrice for 5 minutes at 4° C. in 0.15 M NH4Cl, cells were washed once in ice-cold PBS and counted in a hemocytometer. To determine Lin^−Sca1^+c-kit^+ or Lin^−Sca1^+c-kit^+ft13^− numbers, 10^6 cells were stained with the Mouse Lineage Panel (BD Biosciences) together with FITC-conjugated anti-Sca-1 antibody (BD Biosciences), PE-Cy7-conjugated anti-c-kit antibody (eBioscience) and PE-conjugated anti-flt3 antibody (eBioscience). Cells were further stained with streptavidin-Cy5 (Jackson Immunotech) and analyzed with a BD LSR11 system (BD Biosciences). Bone marrow was harvested by flushing the bone with 1 mL of ice-cold PBS, red blood cells were lysed once for 5 minutes at 4° C. in 0.15 M NH4Cl, cells were washed once in ice-cold PBS and counted with a hemocytometer. CFU-C and Lin^−Sca1^+c-kit^+ft13^− numbers were determined as above. In some experiments, CD150^+CD48^− cell numbers were determined by staining 5×10^6 cells with PE-anti-CD48 antibody (BD Biosciences) and PE-Cy7-anti-CD150 antibody (Biolegend).

bone marrow [2] = assay: CFU-C homing efficiency to bone marrow; format: in vivo; settings: compared to control mice, 24 hours after irradiation and BMNC injection
bone marrow [3] = assay: Steady-state bone marrow analysis after cisplatin or 60HDA treatment; format: in vivo, mice; settings: 3 days after last 60HDA injection
Method: To protect from kidney damage, mice were simultaneously subcutaneously (s.c.) injected with 1 mL of saline solution. Four weeks after the last injection of cisplatin, mice were euthanized for analysis, transplanted (see below) or mobilized with granulocyte colony-stimulating factor (G-CSF, see below).
(§2) To induce acute peripheral sympathectomy, mice received two i.p. injections of 60HDA (Sigma; 100 mg/kg on day 0; 250 mg/kg on day 2). Three days after the last injection of 60HDA mice were euthanized for analysis, transplanted (see below) or injected with 5-fluorouracil (see below).
Blood was harvested by retro-orbital sampling of mice anesthetized with isoflurane and collected in polypropylene tubes containing ethylenediaminetetraacetic acid (EDTA). Blood parameters were determined with an AcT differential counter (Beckman-Coulter). […] For flow cytometry, red blood cells were lysed thrice for 5 minutes at 4° C. in 0.15 M NH4Cl, cells were washed once in ice-cold PBS and counted in a hemocytometer. […] Cells were further stained with streptavidin-Cy5 (Jackson Immunotech) and analyzed with a BD LSR11 system (BD Biosciences). Bone marrow was harvested by flushing the bone with 1 mL of ice-cold PBS, red blood cells were lysed once for 5 minutes at 4° C. in 0.15 M NH4Cl, cells were washed once in ice-cold PBS and counted with a hemocytometer. […]

[4] = Survival after lethal irradiation and bone marrow transplantation; format: in vivo
Method: To protect from kidney damage, mice were simultaneously subcutaneously (s.c.) injected with 1 mL of saline solution.
as §2
Mice were irradiated (1,200 cGy, two split doses, 3 hours apart) in a Cesium Mark 1 irradiator (JL Shepperd & associates). Three hours later, the indicated number of BMNCs was injected retroorbitally in the irradiated recipients under isoflurane (Phoenix Pharmaceuticals) anesthesia. Mice were allowed to recover and analyzed at the indicated time points.
(§3) To induce neuroprotection from 60HDA, mice were injected with 4-MC (10 μg/kg; i.p.) or GDNF-Fc (5 μg per mice; s.c.) for 5 days, starting the treatment the same day as the first injection of 60HDA.

Nestin+ niche cells = assay: HSC niche cell analyses (Nestin+ cells, osteoblasts, endothelial cells, macrophages, α-SMA+ cells); format: in vivo
From the text: Since the SNS directs HSC trafficking by acting on Nestin^+ niche cells through the β3 adrenergic receptor, the changes that occurred in the HSC niche after SNS injury and genotoxic insult were investigated. […] The reason for reduced Nestin^+ numbers in SNS-injured mice during BM recovery was then investigated.

bone marrow [5] = assay: Bone marrow regeneration after 5FU (or sublethal irradiation) in 60HDA-sympathectomized mice; format: in vivo
Method: as §2
(§4) To induce bone marrow ablation and force quiescent HSC to proliferate, 5FU (250 mg/kg; Sigma) was injected i.v. under isoflurane (Phoenix Pharmaceuticals) anesthesia. Mice were allowed to recover and analyzed at the indicated time points.
as §3, §1

[6] = Complete blood counts of moribund 6OHDA-treated mice after 5FU; format: in vivo; settings: for CH / CHCM / HDW / HCT / Hgb / MCH / MCHC / RDW: moribund 6OHOA-treated mouse
Method: as §2, §4, §1

[7] = Survival after 5FU injection in 60HDA-sympathectomized mice; format: in vivo
Method: as §2, §4, §3

TH+ fibers = assay: Immunofluorescence quantification of TH+ sympathetic fibers in bone marrow / calvaria
Method: Bones were collected and fixed for 1 hour in 4% paraformaldehyde (PFA) in PBS (Electron Microscopy Sciences) at 4° C. They were then post-fixed overnight in 1% PFA in PBS at 4° C. and cryoprotected for 24 hours in 30% sucrose. Bones were then included in OCT (Tissue Tek), sectioned (14 μm sections) in a Cryostat, and mounted on CFSA 4× Slides (Leica). TH^+ immunofluorescence staining was performed as previously described in Mendez-Ferrer, et al., Nature 452:442 (2008), incorporated herein by reference. For each mouse analyzed, the number of nerve fibers in 6 fields was quantified and plotted as per mm^2. For whole-mount immunofluorescence, calvaria were harvested by cutting along the temporal lines of the skull and immediately fixed in methanol. Bone tissues were blocked/permeabilized in PBS containing 20% FCS and 0.5% Triton and stained with APC-conjugated anti-PECAM CD31 antibody and TH (Millipore). Signal amplification for TH staining was achieved by using a signal amplification kit (Perkin Elmer). Whole-mount tissues were imaged face-down on an upright Olympus BX61WI microscope. The area between the frontal and parietal bones was identified by moving along the coronal suture and images were obtained from the same area for all mice, along the coronal vein on either side of the central vein. The numbers of individual nerve fibers running alongside blood vessels were quantified and plotted as per 100 μm vessel segment. All images were processed using Slidebook software (Intelligent Imaging Innovations, Inc.).

β3 adrenergic receptors = target: T1, β3 adrenergic receptors (Mus musculus, UniProt P25962); assay: β3 adrenergic blockade during 5FU-induced BM regeneration; format: in vivo, mice
T1 construct: β3 adrenergic receptors expressed by niche cells; from tissue; host or cells: live mice (wild-type or Adrb2-/-); receptor expressed by bone marrow niche cells
Method: as §4
To investigate the role of β2 or β3 adrenergic receptors in bone marrow regeneration, β3 adrenergic signaling was blocked in wild-type or Adrb2^tm1Bkk/J mice by injecting the β3-specific antagonist SR59230A (5 mg/kg, i.p.; Sigma), daily for 3 days.

[8] = 60HDA-treated mice, eight days after 5FU
[9] = 10 days after 5FU (250 mg/kg), listed as 6OHOA
[10] = cisplatin-treated mice plus 4-MC
[11] = 60HDA-lesioned mice plus agent, 12 days after 5FU

T1 sequence (P25962 whole entry): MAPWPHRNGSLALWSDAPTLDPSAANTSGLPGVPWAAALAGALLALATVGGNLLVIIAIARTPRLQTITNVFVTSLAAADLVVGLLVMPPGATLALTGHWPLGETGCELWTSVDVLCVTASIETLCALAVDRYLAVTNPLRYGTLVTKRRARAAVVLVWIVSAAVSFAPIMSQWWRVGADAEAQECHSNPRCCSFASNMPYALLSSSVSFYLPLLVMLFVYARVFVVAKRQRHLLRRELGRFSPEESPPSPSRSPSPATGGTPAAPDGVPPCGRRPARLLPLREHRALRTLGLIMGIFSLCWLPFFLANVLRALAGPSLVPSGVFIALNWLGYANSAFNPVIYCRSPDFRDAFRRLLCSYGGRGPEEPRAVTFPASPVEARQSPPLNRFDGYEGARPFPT

N.N.O=C([O-])C1(C(=O)[O-])CCC1.[Pt+2] [carboplatin]
hematopoietic recovery in BM after transplantation (progenitors, Lin-Sca1+c-kit+flt3- cells, total BM) (bone marrow [1]): not

NCCc1cc(O)c(O)cc1O [60HDA, 6-hydroxydopamine]
CFU-C homing efficiency (bone marrow [2]): No differences; also recorded: No defect
BM cellularity, CFU-C, Lin-Sca1+c-kit+flt3-, CD48-CD150+ cell numbers, Lin-Sca1+c-kit+ cell cycling (bone marrow [3]): did not alter; also recorded: does not induce significant changes
mortality after transplantation ([4]; lethally irradiated, transplanted with wild-type BMNC): significant increase in mortality
hematopoietic recovery in BM after transplantation (progenitors, Lin-Sca1+c-kit+flt3- cells, total BM) (bone marrow [1]): significant reductions in hematopoietic recovery; also recorded: delayed hematopoietic recovery
Nestin+ cell death (apoptosis) (Nestin+ niche cells; 60HDA mice, 24 hours after 5FU): significant increase
endothelial cells, BM monocyte/macrophages, α-SMA+ perivascular cells 12 days after 5FU (Nestin+ niche cells; 60HDA- vs saline-treated mice): failed to detect differences
Nestin+ cell numbers 12 days after 5FU (Nestin+ niche cells; 60HDA-sympathectomized mice): severe deficit
endothelial cells, osteoblasts, CD68+ cells, α-SMA+ perivascular cells by immunofluorescence prior to 5FU (Nestin+ niche cells; 60HDA-treated vs saline mice): did not reveal differences
number of Nestin+ cells prior to 5FU (Nestin+ niche cells; 60HDA-treated vs saline mice): significant increase
osteoblast numbers prior to 5FU (Nestin+ niche cells; 60HDA-treated vs saline mice): slightly increased
hematopoietic recovery after 5FU (bone marrow [5]; 60HDA-sympathectomized mice, day 12): significantly impaired hematopoietic recovery
BM recovery after sublethal irradiation (bone marrow [5]; 60HDA-treated mice, 12 days after irradiation): Reduced BM recovery
Lin-Sca1+c-kit+flt3- cell expansion after 5FU (bone marrow [5]; 60HDA-treated mice, days 4 to 12): blunted
LSK cell proliferation (bone marrow [5]; [8]): increased proliferation
LSK cell viability (bone marrow [5]; [8]): reduced viability
cause of reduced survival after 5FU ([6]; 60HDA-sympathectomized mice): BM failure
CH ([6]; 8 days after 5FU (250 mg/kg)): 13.3 pg and 12.8 pg and 12.9 pg
CHCM ([6]; 8 days after 5FU (250 mg/kg)): 32.8 g·dL and 31.8 g·dL and 31.2 g·dL
HDW ([6]; 8 days after 5FU (250 mg/kg)): 2.34 g·dL and 1.78 g·dL and 1.74 g·dL
CH ([6]; 9 days after 5FU (250 mg/kg)): 13.5 pg
CHCM ([6]; 9 days after 5FU (250 mg/kg)): 33.7 g·dL and 33 g·dL
HCT ([6]; 9 days after 5FU (250 mg/kg)): 11
HDW ([6]; 9 days after 5FU (250 mg/kg)): 2.27 g·dL and 2.34 g·dL
Hgb ([6]; 9 days after 5FU (250 mg/kg)): 3 g·dL
MCH ([6]; 9 days after 5FU (250 mg/kg)): 9.7 pg and 9.1 pg
MCHC ([6]; 9 days after 5FU (250 mg/kg)): 24.3 g·dL and 22.3 g·dL
RDW ([6]; 9 days after 5FU (250 mg/kg)): 12.5 and 12.6
CH [6, 9]: 12.8 pg and 12.9 pg
CHCM [6, 9]: 29.3 g·dL and 30.5 g·dL
HCT [6, 9]: 13 and 10
HDW [6, 9]: 1.67 g·dL and 2.03 g·dL
Hgb [6, 9]: 4 g·dL and 6 g·dL
MCH [6, 9]: 12.8 pg and 18.9 pg
MCHC [6, 9]: 29.3 g·dL and 44.4 g·dL
RDW [6, 9]: 12.2 and 13.2
CH ([6]; 11 days after 5FU (250 mg/kg)): 13.2 pg
CHCM ([6]; 11 days after 5FU (250 mg/kg)): 30.7 g·dL
HCT ([6]; 11 days after 5FU (250 mg/kg)): 14
HDW ([6]; 11 days after 5FU (250 mg/kg)): 1.95 g·dL
Hgb ([6]; 11 days after 5FU (250 mg/kg)): 3 g·dL
MCH ([6]; 11 days after 5FU (250 mg/kg)): 10.5 pg
MCHC ([6]; 11 days after 5FU (250 mg/kg)): 24.3 g·dL
RDW ([6]; 11 days after 5FU (250 mg/kg)): 11.3
CH ([6]; 12 days after 5FU (250 mg/kg)): 12.6 pg
CHCM ([6]; 12 days after 5FU (250 mg/kg)): 31.1 g·dL
HCT ([6]; 12 days after 5FU (250 mg/kg)): 15
HDW ([6]; 12 days after 5FU (250 mg/kg)): 2.31 g·dL
Hgb ([6]; 12 days after 5FU (250 mg/kg)): 3 g·dL
MCH ([6]; 12 days after 5FU (250 mg/kg)): 9.3 pg
MCHC ([6]; 12 days after 5FU (250 mg/kg)): 22.9 g·dL
RDW ([6]; 12 days after 5FU (250 mg/kg)): 13.5
survival after 5FU ([7]; 60HDA-sympathectomized vs saline mice): dramatically reduced their survival

CC[C@]1(O)C[C@H]2CN(CCc3c([nH]c4ccccc34)[C@@](C(=O)OC)(c3cc4c(cc3OC)N(C=O)[C@H]3[C@@](O)(C(=O)OC)[C@H](OC(C)=O)[C@]5(CC)C=CCN6CC[C@]43[C@@H]65)C2)C1 [vincristine]
BM recovery 3 months after transplantation (bone marrow [1]; mouse, in vivo): not yet completely recovered
HSC content by competitive repopulation assays (bone marrow [1]; mouse, in vivo): reduced HSC content

Cc1ccc(O)c(O)c1 [4-MC, 4-methylcatechol]
survival after transplantation with neuroprotective agent ([4]; cisplatin-treated mice plus agent): no death was observed; also recorded: completely abolished transplant-associated death; also recorded: completely prevented neuropathy-induced death
HSC frequency and absolute numbers (LTC-IC, competitive repopulation assays) (bone marrow [1]; cisplatin-treated mice plus 4-MC, after transplantation): higher frequency and absolute numbers of HSC
bone marrow regeneration after transplantation with neuroprotective agent (BM cellularity, progenitor counts, LSKF cells) (bone marrow [1]; cisplatin-treated mice plus agent, one month after transplantation): accelerated bone marrow regeneration; also recorded: significantly improves hematopoietic cell counts
Nestin+ cell number 12 days after 5FU (Nestin+ niche cells; 60HDA mice plus 4-MC): restored normal Nestin^+ cell number
SNS-injury-induced expansion of Nestin+ cells and osteoblasts prior to 5FU (Nestin+ niche cells; 60HDA mice plus 4-MC): abolished the expansion
other niche cells (endothelial cells, BM macrophages, perivascular α-SMA cells) (Nestin+ niche cells; 60HDA mice plus 4-MC, before or after 5FU): did not affect other niche cells
endothelial cells, BM macrophages, perivascular α-SMA+ cells before BMT (Nestin+ niche cells; [10]): without affecting
expansion in Nestin+ cells and osteoblasts before BMT (Nestin+ niche cells; [10]): ameliorated the expansion
TH+ / SNS fiber recovery (TH+ fibers; [11]): induced TH^+ fiber recovery; also recorded: significant recovery in the number of BM SNS fibers; also recorded: protects sympathetic fibers
increase in bone marrow TH+ fiber density (TH+ fibers; cisplatin+4-MC compared to cisplatin+saline, p<0.05): 2 fold
HSC recovery by competitive repopulation assays (bone marrow [5]; 60HDA-lesioned mice plus 4-MC, after 5FU): significant increase in HSC recovery
hematopoietic recovery after 5FU with neuroprotective agent (BM, LSKF cells) (bone marrow [5]; [11]): increased hematopoietic recovery; also recorded: significantly increased
BM recovery after 5FU in Tα1-Cre:TrkANeo/Neo mice (bone marrow [5]; sympathectomized mice treated with 4-MC, TrkA restricted to nervous system): recovery comparable to that of wild-type mice
survival after 5FU with neuroprotective agent ([7]; 60HDA-lesioned mice plus agent): completely protected from death; also recorded: completely abolished 5FU-associated cell death

CCc1ccccc1OC[C@@H](O)CN[C@H]1CCCc2ccccc21 [SR59230A]
hematopoietic regeneration after 5FU with both β2 and β3 receptors disrupted (β3 adrenergic receptors; Adrb2-/- mice plus SR59230A): most severe impairment; also recorded: severe impairment in hematopoietic regeneration
hematopoietic recovery after 5FU under β3 blockade (β3 adrenergic receptors; wild-type mice, SR59230A alone): sufficient to impair hematopoietic regeneration; also recorded: partially compromised hematopoietic recovery
